From patent US7718808B2, “Thiazole derivatives” (Kyowa Hakko Kirin Co., Ltd., priority 2003, dated 2010)

Columns and labels:
[1] = target: T1, Rat Adenosine A2A Receptor (Rattus norvegicus, UniProt P30543); experiment: Adenosine A2A receptor binding test (3H-CGS21680 binding, rat corpus striatum); settings: test compound 10^−7 mol/L, 25° C., 120 minutes; for inhibition at 0.1 µM: read-out: Rat Adenosine A2A Receptor Binding Inhibition rate (%) (10^−7 mol/L)
T1 construct: tissue Nippon SLC (animals); host or cells: rat (SD) corpus striatum membrane homogenate
T1 sequence (P30543 whole entry): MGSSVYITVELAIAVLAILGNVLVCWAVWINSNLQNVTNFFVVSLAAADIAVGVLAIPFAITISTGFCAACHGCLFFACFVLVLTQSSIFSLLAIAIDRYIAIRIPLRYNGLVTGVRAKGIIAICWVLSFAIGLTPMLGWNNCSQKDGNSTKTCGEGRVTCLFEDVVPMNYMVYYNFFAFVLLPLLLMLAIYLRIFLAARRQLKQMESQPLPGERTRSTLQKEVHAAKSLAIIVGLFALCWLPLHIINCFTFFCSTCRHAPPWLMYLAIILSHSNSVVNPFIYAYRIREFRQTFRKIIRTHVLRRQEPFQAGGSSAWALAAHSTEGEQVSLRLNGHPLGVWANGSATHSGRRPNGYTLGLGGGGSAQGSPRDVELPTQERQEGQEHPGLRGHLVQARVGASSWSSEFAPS
Method: This test was carried but in a similar manner to a Bruns et al's method (Molecular Pharmacology, Vol. 29, p. 331, 1986).
Corpus striatum of rats (SD rat, by Nippon SLC) was suspended in 50 mL of an ice-cooled 50 mmol/L tris(hydroxymethyl)aminomethane hydrochloride (Tris-HCl) buffer (pH 7.7) using a polytron homogenizer (by Kinematica). The resulting homogenate was centrifuged (48,000×g, 20 minutes), and the resulting precipitate was again suspended by adding the same amount of a 50 mmol/L Tris-HCl buffer, followed by centrifugation under the same condition. The resulting final precipitate was suspended by adding a 50 mmol/L Tris-HCl buffer [containing 10 mmol/L magnesium chloride, adenosine deaminase 0.02 units/mg tissue (by Sigma)] so that the tissue concentration was 5 mg (wet weight)/mL.
To 100 μL of the above purified tissue suspension, were added 80 μL (final concentration […]) of tritium-labeled CGS-21680 {^3H-2-[p-(2-carboxyethyl)phenethylamino]-5′-(N-ethylcarboxamido)-adenosine: 40 curies/mmol; by New England Nuclear [The Journal of Pharmacology and Experimental Therapeutics, Vol. 251, p. 888, 1989]} and 20 μL of a test compound solution (10^−7 mol/L; a solution of a test compound in DMSO was diluted with Tris-HCl buffer). The resulting mixture was allowed to stand at 25° C. for 120 minutes, followed by rapid suction filtration through a glass fiber paper filter (GF/C; by Whatman). The filter was immediately washed three times with 200 μL of an ice-cooled 50 mmol/L Tris-HCl buffer. The glass fiber paper filter was transferred into a vial, Microscinti (by Perkin Elmer) was added thereto, and the radioactivity level was measured with Topcount (by Perkin Elmer).
The inhibition rate of the test compound to the adenosine A2A receptor binding (^3H-CGS21680 binding) was calculated according to the following formula.
Amount of total binding means the ^3H-CGS21680 binding radioactivity content in the absence of the test compound. Amount of non-specific binding means the ^3H-CGS21680 binding radioactivity content in the presence of 100 μmol/L cyclopentyladenosine (CPA; by Sigma). Amount of binding in the presence of test compound means the ^3H-CGS21680 binding radioactivity content in the presence of 10^−7 mol/L of the test compound.

Compound | Rat Adenosine A2A Receptor Binding Inhibition rate (%) (10^−7 mol/L) [1] | inhibition at 0.1 µM [1] | melting point
O=C(Nc1nc(-c2ccco2)c(C(=O)C2CCCC2)s1)c1ccncc1 [Compound 431, N-[5-(Cycolopentylcarbonyl)-4-(2-furyl)thiazol-2-yl]-pyridine-4-carboxamide] | 98% | – | –
O=C(Nc1nc(-c2ccco2)c(C(=O)C2CCOCC2)s1)c1ccc(Cl)nc1 [Compound 502, 2-Chloro-N-[4-(2-furyl)-5-(tetrahydropyran-4-ylcarbonyl)thiazol-2-yl]pyridine-5-carboxamide] | – | 90% | 233 to 235 °C
N#Cc1ccc(C(=O)Nc2nc(-c3ccco3)c(C(=O)C3CCOCC3)s2)o1 [Compound 515, 5-Cyano-N-[4-(2-furyl)-5-(tetrahydropyran-4-ylcarbonyl)thiazol-2-yl]furan-2-carboxamide] | – | 95% | 222 to 223 °C
CS(=O)(=O)c1ccc(N2CCC(C(=O)Nc3nc(-c4ccco4)c(N4CCOCC4)s3)CC2)nc1 [Compound 46, N-[4-(2-Furyl)-5-morpholinothiazol-2-yl]-1-[5-(methanesulfonyl)pyridin-2-yl]piperidine-4-carboxamide] | – | 95% | –
O=C(Nc1nc(-c2ccco2)c(Cc2ccccc2)s1)c1ccncc1 [Compound 23, N-[5-Benzyl-4-(2-furyl)thiazol-2-yl]pyridine-4-carboxamide] | – | 85% | –
O=C(CN1CCOCC1)Nc1nc(-c2ccco2)c(C(=O)C2CCOCC2)s1 [Compound 558, N-[4-(2-Furyl)-5-(tetrahydropyran-4-ylcarbonyl)thiazol-2-yl]-2-morpholinoacetamide] | – | 92% | –
COc1cccc(C(=O)Nc2nc(-c3ccco3)c(C(=O)C3CCOCC3)s2)c1 [Compound 462, N-[4-(2-Furyl)-5-(tetrahydropyran-4-ylcarbonyl)thiazol-2-yl]-3-methoxybenzamide] | – | 99% | 198 to 200 °C
O=C(Nc1nc(-c2ccco2)c(-c2ccncc2)s1)c1ccco1 [Compound 8, N-[4-(2-Furyl)-5-(4-pyridyl)thiazol-2-yl]furan-2-carboxamide] | – | 100% | –
O=C(Nc1nc(-c2ccco2)c(-c2ccncc2)s1)c1ccc(Cn2ccnc2)cc1 [Compound 19, N-[4-(2-Furyl)-5-(4-pyridyl)thiazol-2-yl]-4-(imidazol-1-ylmethyl)benzamide] | – | 90% | –
Cc1ncc(C(=O)Nc2nc(-c3ccco3)c(C(=O)c3ccccn3)s2)cn1 [Compound 228] | 84% | – | –
O=C(Nc1nc(-c2ccco2)c(C(=O)C2CCOCC2)s1)c1ccco1 [Compound 511, N-[4-(2-Furyl)-5-(tetrahydropyran-4-ylcarbonyl)thiazol-2-yl]furan-2-carboxamide] | – | 88% | 196 to 198 °C
CC(C)n1nc(-c2sc(NC(=O)c3ccncc3)nc2-c2ccco2)ccc1=O [Compound 131, N-[4-(2-Furyl)-5-(1-isopropyl-6-oxo-1,6-dihydropyridazin-3-yl)thiazol-2-yl]pyridine-4-carboxamide] | – | 99% | 190 to 194 °C
O=C(Nc1nc(-c2ccco2)c(-c2ccncc2)s1)c1cccnc1 [Compound 5, N-[4-(2-Furyl)-5-(4-pyridyl)thiazol-2-yl]pyridine-3-carboxamide] | – | 100% | –
O=C(Nc1nc(-c2ccco2)c(-c2ccncc2)s1)C1CCCCC1 [Compound 4, N-[4-(2-Furyl)-5-(4-pyridyl)thiazol-2-yl]cyclohexanecarboxamide] | – | 95% | –
N#Cc1ccc(C(=O)Nc2nc(-c3ccco3)c(C(=O)c3ccccn3)s2)cc1 [Compound 206, 4-Cyano-N-[4-(2-furyl)-5-(pyridin-2-ylcarbonyl)thiazol-2-yl]benzamide] | – | 95% | 232 to 235 °C
CCOC(=O)c1sc(NC(=O)c2ccncc2)nc1-c1ccco1 [Compound 24, N-(5-(Ethoxycarbonyl)-4-(2-furyl)thiazol-2-yl]pyridine-4-carboxamide] | – | 88% | –
O=C(Nc1nc(-c2ccco2)c(C(=O)C2CCOCC2)s1)c1ccc(F)cc1 [Compound 468, 4-Fluoro-N-[4-(2-furyl)-5-(tetrahydropyran-4-ylcarbonyl)thiazol-2-yl]benzamide] | – | 93% | 131 to 132 °C

Compound | Rat Adenosine A2A Receptor Binding Inhibition rate (%) (10^−7 mol/L) [1] | inhibition at 0.1 µM [1] | melting point
O=C(Nc1nc(-c2ccco2)c(C(=O)c2nccs2)s1)c1ccncc1 [Compound 348, N-[4-(2-Furyl)-5-(thiazol-2-ylcarbonyl)thiazol-2-yl]pyridine-4-carboxamide] | – | 100% | 228 to 240 °C
O=C(Nc1nc(-c2ccco2)c(CN2CCSCC2)s1)c1ccncc1 [Compound 87, N-[4-(2-Furyl)-5-(thiomorpholinomethyl)thiazol-2-yl]pyridine-4-carboxamide] | – | 100% | –
O=C(Nc1nc(-c2ccco2)c(C(=O)c2ccc(F)cc2)s1)c1ccncc1 [Compound 170, N-[5-(4-Fluorobenzoyl)-4-(2-furyl)thiazol-2-yl]pyridine-4-carboxamide] | – | 87% | –
O=C(Nc1nc(-c2ccco2)c(-c2ccncc2)s1)c1ccc(O)nc1 [Compound 11, N-[4-(2-Furyl)-5-(4-pyridyl)thiazol-2-yl]-2-hydroxypyridine-5-carboxamide] | – | 100% | –
CN1CCN(c2cc(C(=O)Nc3nc(-c4ccco4)c(N4CCOCC4)s3)ccn2)CC1 [Compound 41, N-[4-(2-Furyl)-5-morpholinothiazol-2-yl]-2-(4-methylpiperazin-1-yl)pyridine-4-carboxamide] | – | 92% | –
O=C(Nc1nc(-c2ccco2)c(CN2CCOCC2)s1)c1cccnc1 [Compound 94, N-[4-(2-Furyl)-5-(morpholinomethyl)thiazol-2-yl]pyridine-3-carboxamide] | – | 100% | –
O=C(c1ccccn1)c1sc(NC(=O)C2CC2)nc1-c1ccco1 [Compound 191, N-[4-(2-Furyl)-5-(pyridin-2-ylcarbonyl)thiazol-2-yl]cyclopropanecarboxamide] | – | 98% | 191 to 192 °C
O=C(Nc1nc(-c2ccco2)c(C(=O)c2ccccc2)s1)c1ccc(=O)[nH]c1 [Compound 149, N-[5-Benzoyl-4-(2-furyl)thiazol-2-yl]-2-oxo-1,2-dihydropyridine-5-carboxamide] | – | 91% | > 300 °C
O=C(Nc1nc(-c2ccco2)c(C(=O)c2ccccc2)s1)c1ccncc1 [Compound 99, N-[5-Benzoyl-4-(2-furyl)thiazol-2-yl]pyridine-4-carboxamide] | – | 98% | –
O=C(Nc1nc(-c2ccco2)c(C(=O)C2CCOCC2)s1)c1ccncc1 [Compound 455, N-[4-(2-Furyl)-5-(tetrahydropyran-4-ylcarbonyl)thiazol-2-yl]pyridine-4-carboxamide] | – | 100% | 202 to 209 °C
Cc1ccc(C(=O)Nc2nc(-c3ccco3)c(C(=O)C3CCOCC3)s2)cn1 [Compound 504, N-[4-(2-Furyl)-5-(tetrahydropyran-4-ylcarbonyl)thiazol-2-yl]-2-methylpyridine-5-carboxamide] | – | 100% | –
O=C(Nc1nc(-c2ccco2)c(C(=O)C2CCOCC2)s1)C1CC1 [Compound 456, N-[4-(2-Furyl)-5-(tetrahydropyran-4-ylcarbonyl)thiazol-2-yl]cyclopropanecarboxamide] | – | 94% | 182 to 183 °C
COC(=O)Nc1nc(-c2ccco2)c(C(=O)c2ccccn2)s1 [Compound 249, Methyl N-[4-(2-furyl)-5-(pyridin-2-ylcarbonyl)thiazol-2-yl]carbamate] | – | 85% | –
O=C(Nc1nc(-c2ccco2)c(-c2ccncc2)s1)c1ccoc1 [Compound 9, N-[4-(2-Furyl)-5-(4-pyridyl)thiazol-2-yl]furan-3-carboxamide] | – | 100% | –
O=C(Cc1cccnc1)Nc1nc(-c2ccoc2)c(C(=O)C2CCOCC2)s1 [Compound 618, N-[4-(3-Furyl)-5-(tetrahydropyran-4-ylcarbonyl)thiazol-2-yl]-2-(3-pyridyl)acetamide] | – | – | 195 to 197 °C
O=C(CC1CCOCC1)Nc1nc(-c2ccco2)c(C(=O)C2CCOCC2)s1 [Compound 525, N-[4-(2-Furyl)-5-(tetrahydropyran-4-ylcarbonyl)thiazol-2-yl]-2-(tetrahydropyran-4-yl)acetamide] | – | – | 206 to 209 °C
